Where a SMILES comes first, the peptide text is derived from it. [ ]: non-standard residue; d: D form. The star is where a group is joined. Sta = CC(C)C[C@H](N)[C@@H](O)CC(=O)O; Isovaleryl = CC(C)CC(=O)*
Legend:
[1] = test system: rodent GSK3β homologs; details: cited from earlier work
[2] = test system: CD49D purified EDNRB−/− hESC-derived ENC; experiment: Scratch (migration) assay on EDNRB−/− ENC precursors; type: cell-based, human
Protocol: The ENC cells were plated on PO/LM/FN coated (prepared as described previously^38) 96 well or 48 well culture plates (30,000/cm^2). 24 hours later the culture lawn was scratched manually using a pipette tip. The cells were given an additional 24-48 hours to migrate into the scratch area and fixed for imaging and quantification. The quantification was based on the percentage of the nuclei that are located in the scratch area after the migration period. The scratch area was defined using a reference well that was fixed immediately after scratching. Migration of cells were quantified using the open source data analysis software KNIME^41 (http://knime.org) with the “Quantification in ROI” plug-in as described in detail elsewhere^42.
The chemical compound screening was performed using the Prestwick Chemical Library®. The ENC cells were plated in 96 well plates (30,000/cm^2) and scratched manually 24 hours before addition of the compounds. The cells were treated with two concentrations of the compounds (10 μM and 1 μM). The plates were fixed 24 hours later for total plate imaging. The compounds were scores based on their ability to promote filling of the scratch in 24 hours. […] The hits were further validated to ensure reproducibility. The cells were treated with various concentrations of the selected hit compound (Pepstatin A) for dose response analysis. The optimal dose (10 μM-based on optimal response and viability) was used for follow-up experiments. For the pre-treatment experiments, cells were CD49D purified at day 11 and treated with Pepstatin A from day 12 through day 15 followed by transplantation into the colon wall of NSG mice.
To inhibit BACE2, the ENC precursors were treated with 1 μM β-Secretase Inhibitor IV (CAS 797035-11-1—Calbiochem). […] The Knockdown was confirmed by qRT-PCR measurement of BACE2 mRNA levels in cells transfected with the BACE2 siRNAs vs. the control siRNA pool (ON-TARGETplus Non-targeting Pool, Dharmacon, D-001810-10-05). The transfected cells were scratched 24 hours after plating and fixed 48 hours later for migration quantification.

[3] = test system: EDNRB−/− hESC-derived ENC precursors; experiment: Colon migration after transplantation of pre-treated EDNRB−/− ENC precursors into NSG mice; type: in vivo, human cells in NSG mice; details: EDNRB-null precursors pre-treated for 72 hours before transplantation, 2 weeks
Protocol: All mouse procedures were performed following NIH guidelines, and were approved by the local Institutional Animal Care and Use Committee (IACUC), the Institutional Biosafety Committee (IBC) as well as the Embryonic Stem Cell Research Committee (ESCRO). 3-6 week old male NSG (NOD.Cg-Prkdc^scid Il2rg^tm1Wjl/SzJ) mice or 2-3 weeks old EDNRB^s-l/s-l (SSL/LeJ) mice^39 (n=12, 6 male, 6 female) were used for these studies. […] Animals were randomly selected for the various treatment paradigms (NSG and EDNRB^s-l/s-l) but assuring for equal distribution of male/female ratio in each group (EDNRB^s-l/s-l). Animals were anesthetized with isoflurane (1%) throughout the procedure, a small abdominal incision was made, abdominal wall musculature lifted and the cecum is exposed and exteriorized. Warm saline was used to keep the cecum moist. 20 μl of cell suspension (2-4 million RFP+CD49D purified hESC-derived ENC precursors) in 70% matrigel (BD Biosciences, 354234) in PBS or 20 μl of 70% matrigel in PBS only (control grafted animals) were slowly injected into the cecum (targeting the muscle layer) using a 27-gauge needle. […]
The harvested colon samples were fixed in 4% PFA at 4° C. overnight before imaging. Imaging was performed using Maestro fluorescence imaging system (Biotechniques). […]

Compound: Cc1c[nH]c(-c2cnc(NCCNc3ccc(C#N)cn3)nc2-c2ccc(Cl)cc2Cl)n1 [CHIR99021, 6-(2-(4-(2,4-dichlorophenyl)-5-(4-methyl-1H-imidazol-2-yl)pyrimidin-2-ylamino)ethylamino)nicotinonitrile]
- IC50 values against rodent GSK3β homologs [1]: nanomolar

Compound: CC(C)CC(=O)N[C@H](C(=O)N[C@H](C(=O)N[C@@H](CC(C)C)[C@@H](O)CC(=O)N[C@@H](C)C(=O)N[C@@H](CC(C)C)[C@@H](O)CC(=O)O)C(C)C)C(C)C [Pepstatin A] (Isovaleryl-VV[Sta]A[Sta]-OH)
- rescue of the migration defect in scratch assay ([2]; EDNRB−/− hESC derived NC precursors, range of concentrations, treatment started 24 hrs before scratching): dose-dependent, near complete rescue of the migration defect
- optimal dose (based on optimal response and viability) ([2]; dose response analysis, EDNRB−/− ENC): 10 µM
- rescue of in vivo migration behavior in adult colon [3]: significant rescue of the in vivo migration behavior

Compound: BACE inhibitor IV
- rescue of the migration defect in scratch assay ([2]; EDNRB−/− hESC-derived ENC, 1 μM): rescued the migration defect

Source: patent US12371662B2, “Cell-based treatment and drug discovery in Hirschsprung's disease enabled by pluripotent stem cell-derived human enteric neural crest lineages” (MEMORIAL SLOAN-KETTERING CANCER CENTER, priority 2015, dated 2025)
